Test results taken from patent publication US5635593A (priority 1995, dated 1997).
Numbered stars: 1 amine (or outer) side, 2 acyl side, 3 side chain; on linkers, the order of the positions; unused ones are H or OH. Bridge positions count the residues as written; N and C are the ends. Square brackets hold non-standard residues; d marks the D form. Peptide text beside a SMILES is read from it. I, II: the chains in the order shown. BMH = O=C1CC([*:1])C(=O)N1CCCCCCN1C(=O)CC([*:2])C1=O; Oic = O=C(O)[C@@H]1C[C@@H]2CCCC[C@@H]2N1; Hyp = O=C(O)[C@@H]1C[C@@H](O)CN1; dTic = O=C(O)[C@H]1Cc2ccccc2CN1

Columns and labels:
BK2 receptor = target: T1, BK2 receptor (Oryctolagus cuniculus, UniProt Q28642); assay: blood pressure response to BK2 agonist in LPS-pretreated rabbits; assay type: in vivo, rabbit; parameters: key to observed antagonist activity BK2, 1 / observed antagonist activity BK2, 3 / observed antagonist activity BK2, 10: +: complete blockade of the blood pressure response to the appropriate agonist; ±: partial blockade; -: no observable effect at the dose indicated; conditions: for observed antagonist activity BK2, 1: 1 μg kg^-1 min^-1; for observed antagonist activity BK2, 1 / observed antagonist activity BK2, 3 / observed antagonist activity BK2, 10: rabbits given LPS (10 μg) 20 hours before; for observed antagonist activity BK2, 3: 3 μg kg^-1 min^-1; for observed antagonist activity BK2, 10: 10 μg kg^-1 min^-1
T1 construct: from tissue; host or cells: whole animal (rabbit, LPS-pretreated), blood pressure response
T1 sequence (Q28642 1-367): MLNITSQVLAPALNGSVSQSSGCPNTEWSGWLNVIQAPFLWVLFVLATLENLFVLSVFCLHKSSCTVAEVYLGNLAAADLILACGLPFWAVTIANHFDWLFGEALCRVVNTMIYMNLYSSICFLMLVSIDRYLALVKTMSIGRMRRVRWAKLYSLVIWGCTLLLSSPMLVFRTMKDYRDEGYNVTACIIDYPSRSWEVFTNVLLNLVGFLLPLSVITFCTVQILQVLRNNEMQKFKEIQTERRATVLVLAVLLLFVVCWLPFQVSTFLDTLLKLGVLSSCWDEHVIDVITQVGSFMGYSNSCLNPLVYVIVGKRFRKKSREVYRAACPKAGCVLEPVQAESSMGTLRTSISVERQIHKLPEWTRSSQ
Description: (§1) That heterodimeric constructs block the activities attributable to two different receptor populations simultaneously when administered to an intact animal has been known using a standard assay of BK2 and BK1 receptor activity (see, deBlois, Bouthillier, and Marceau, Brit. J. Pharm., 103, 1057-1066, 1991). In normal rabbits, no changes in systemic arterial blood pressure can be detected in response to challenges with BK1 receptor agonists. There is, however, a predictable and reproducible response to BK2 agonists constituatively present. After stimulation with LPS BK1 receptor activity will develop over time such that profound responses to doses of BK1 agonists that were previously inconsequential in nature are observed after a 3-4 hour period. Responses to BK2 agonists are unchanged in these animals. At this point, one can test directly the ability to block both BK1 and BK2 mediated reductions in systemic blood pressure simultaneously with a heterodimeric antagonist.
(§2) FIGS. 8a, b and c comprise actual blood pressure traces from a series of experiments designed to illustrate the ability of a representative heterodimer (CP-0364) to block both BK1 - and BK2 - mediated hypotensive responses simultaneously.
(§3) The expected antagonist activity is based on the data summarized in Tables K and L. The in vivo experimental data reported are qualitative measurements of antagonist activity at three different doses (1, 3 and 10 μg kg^-1 min^-1) in rabbits given a sub-lethal dose of LPS (10 μg), 20 hours before initiation of the experiment.

BK1 receptor = target: T2, BK1 receptor (Oryctolagus cuniculus, UniProt P48748); assay: blood pressure response to BK1 agonist in LPS-pretreated rabbits; assay type: in vivo, rabbit; parameters: from tissue; host or cells: whole animal (rabbit, LPS-pretreated), blood pressure response; key to observed antagonist activity BK1, 1 / observed antagonist activity BK1, 3 / observed antagonist activity BK1, 10: +: complete blockade of the blood pressure response to the appropriate agonist; ±: partial blockade; -: no observable effect at the dose indicated; conditions: for observed antagonist activity BK1, 1: 1 μg kg^-1 min^-1; for observed antagonist activity BK1, 1 / observed antagonist activity BK1, 3 / observed antagonist activity BK1, 10: rabbits given LPS (10 μg) 20 hours before; for observed antagonist activity BK1, 3: 3 μg kg^-1 min^-1; for observed antagonist activity BK1, 10: 10 μg kg^-1 min^-1
T2 sequence (P48748 1-352): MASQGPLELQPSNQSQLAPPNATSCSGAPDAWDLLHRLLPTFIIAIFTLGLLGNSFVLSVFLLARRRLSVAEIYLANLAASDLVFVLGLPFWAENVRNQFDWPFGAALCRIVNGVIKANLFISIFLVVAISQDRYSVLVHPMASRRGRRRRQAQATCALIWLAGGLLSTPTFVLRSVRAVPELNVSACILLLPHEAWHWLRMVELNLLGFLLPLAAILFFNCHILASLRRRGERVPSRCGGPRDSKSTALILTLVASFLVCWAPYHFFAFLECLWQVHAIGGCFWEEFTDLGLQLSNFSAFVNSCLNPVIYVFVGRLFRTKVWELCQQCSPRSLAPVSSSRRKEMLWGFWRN
Description: as §1, §2, §3

BK2 -receptor = target: T3, BK2 -receptor (Rattus norvegicus, UniProt P25023); assay: rat uterus (RU) in vitro, antagonism of BK; conditions: against BK
T3 construct: guinea-pig ileum (GPI), rat uterus (RU) and rabbit jugular vein (RJV); from tissue; host or cells: rat uterus
T3 sequence (P25023 1-396): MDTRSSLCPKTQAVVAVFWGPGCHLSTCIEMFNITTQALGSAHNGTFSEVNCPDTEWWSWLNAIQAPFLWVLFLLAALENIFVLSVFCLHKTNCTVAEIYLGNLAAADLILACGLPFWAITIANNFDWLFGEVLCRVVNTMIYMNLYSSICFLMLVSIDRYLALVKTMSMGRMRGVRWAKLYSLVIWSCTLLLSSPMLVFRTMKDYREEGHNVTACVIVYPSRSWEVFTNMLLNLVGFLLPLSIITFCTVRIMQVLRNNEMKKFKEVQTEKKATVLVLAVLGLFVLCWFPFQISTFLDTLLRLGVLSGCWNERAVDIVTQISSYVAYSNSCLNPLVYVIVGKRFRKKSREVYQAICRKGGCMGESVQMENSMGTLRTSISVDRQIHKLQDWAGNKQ
Experimental: Thus, in vitro studies were performed on standard assay systems, namely, guinea-pig ileum (GPI), rat uterus (RU) and rabbit jugular vein (RJV). […] The potency of each compound was assessed as a pA2 value according to the method of Arunlakshana & Schild, Br. J. Pharmacol. Chemother., 14:48-58 (1959). The pA2 can be defined as the negative logarithm of the molar concentration of the antagonist in the presence of which the potency of the agonist is reduced two-fold, i.e., twice the amount of agonist is required to produce a given response in the presence of, than in the absence of, the antagonist. A high potency of antagonism is indicated by a high pA2 value. i.e., a low concentration of antagonist is effective.
The percentage recovery (% Rec) was also determined for compounds with respect to each assay.
With respect to duration of activity, it is noted that after exposure to the highest concentration of antagonist, each tissue was washed extensively and then assessed for recovery from the antagonist effect.
Potency in the rat uterus assay was assessed as described above and pA2 values determined.

[1] = rabbits after endotoxin pre-treatment, agonist i.v. bolus

SMILES	observed antagonist activity BK2, 1 (BK2 receptor)	observed antagonist activity BK2, 3 (BK2 receptor)	observed antagonist activity BK2, 10 (BK2 receptor)	observed antagonist activity BK1, 1 (BK1 receptor)	observed antagonist activity BK1, 3 (BK1 receptor)	observed antagonist activity BK1, 10 (BK1 receptor)	Kb (BK2 -receptor; read-out: pA2 rat uterus (BK2) (converted)) [nM]	pA2 rat uterus (BK2) (BK2 -receptor)	block of BK2-mediated hypotensive response (FIG. 8) (BK2 receptor; [1])	block of BK1-mediated hypotensive response (FIG. 8) (BK1 receptor; [1])
N=C(N)NCCC[C@@H](N)C(=O)N[C@@H](CCCNC(=N)N)C(=O)N1CCC[C@H]1C(=O)N1C[C@H](O)C[C@H]1C(=O)NCC(=O)N[C@@H](Cc1ccccc1)C(=O)N[C@@H](CSC1CC(=O)N(CCCCCCN2C(=O)CC(SC[C@H](NC(=O)[C@H](N)CCCNC(=N)N)C(=O)N3CCC[C@H]3C(=O)N3C[C@H](O)C[C@H]3C(=O)NCC(=O)N[C@@H](Cc3ccccc3)C(=O)N[C@@H](CO)C(=O)N3Cc4ccccc4C[C@@H]3C(=O)N3[C@H](C(=O)O)C[C@@H]4CCCC[C@@H]43)C2=O)C1=O)C(=O)N1Cc2ccccc2C[C@@H]1C(=O)N1[C@H](C(=O)N[C@@H](CCCNC(=N)N)C(=O)O)C[C@@H]2CCCC[C@@H]21 (stereo partly shown) [CP-0365] (I: H-[dR]RP[Hyp]GFC[dTic][Oic]R-OH / II: H-[dR]CP[Hyp]GFS[dTic][Oic]-OH; linker I:7-II:2 via BMH; N-terminus and C-terminus assumed)	-	+	+	-	+	+				
CC(C)C[C@H](NC(=O)[C@@H](Cc1ccccc1)NC(=O)[C@H](CSC1CC(=O)N(CCN2C(=O)CC(SC[C@H](NC(=O)[C@H](Cc3ccccc3)NC(=O)CNC(=O)[C@@H]3C[C@@H](O)CN3C(=O)[C@@H]3CCCN3C(=O)[C@H](CCCNC(=N)N)NC(=O)[C@H](N)CCCNC(=N)N)C(=O)N[C@H](Cc3ccccc3)C(=O)N[C@@H](CC(C)C)C(=O)N[C@@H](CCCNC(=N)N)C(=O)O)C2=O)C1=O)NC(=O)[C@H](Cc1ccccc1)NC(=O)CNC(=O)[C@@H]1C[C@@H](O)CN1C(=O)[C@@H]1CCCN1C(=O)[C@H](CCCNC(=N)N)NC(=O)[C@H](N)CCCNC(=N)N)C(=O)N[C@@H](CCCNC(=N)N)C(=O)O (stereo partly shown) [CP-0162] (HELM PEPTIDE1{[dR].R.P.[Hyp].G.F.C.[dF].L.R}|PEPTIDE2{[dR].R.P.[Hyp].G.F.C.[dF].L.R}|CHEM1{[O=C1CC([*:1])C(=O)N1CCN1C(=O)CC([*:2])C1=O]}$PEPTIDE1,CHEM1,7:R3-1:R1|PEPTIDE2,CHEM1,7:R3-1:R2$$$V2.0)							3.98			
CC(C)C[C@H](NC(=O)[C@@H](Cc1ccccc1)NC(=O)[C@H](CSC1CC(=O)N(CCCCCCN2C(=O)CC(SC[C@H](NC(=O)[C@@H](Cc3c[nH]c4ccccc34)NC(=O)[C@H](Cc3ccc(O)cc3)NC(=O)[C@@H](N)CC(=O)O)C(=O)N[C@H](Cc3c[nH]c4ccccc34)C(=O)N[C@H](Cc3c[nH]c4ccccc34)C(=O)N[C@@H](CCCNC(=N)N)C(N)=O)C2=O)C1=O)NC(=O)[C@H](Cc1ccccc1)NC(=O)CNC(=O)[C@@H]1C[C@@H](O)CN1C(=O)[C@@H]1CCCN1C(=O)[C@H](CCCNC(=N)N)NC(=O)[C@H](N)CCCNC(=N)N)C(=O)N[C@@H](CCCNC(=N)N)C(=O)O (stereo partly shown) [CP-0414] (HELM PEPTIDE1{[dR].R.P.[Hyp].G.F.C.[dF].L.R}|PEPTIDE2{D.Y.[dW].C.[dW].[dW].R.[am]}|CHEM1{[O=C1CC([*:1])C(=O)N1CCCCCCN1C(=O)CC([*:2])C1=O]}$PEPTIDE1,CHEM1,7:R3-1:R1|PEPTIDE2,CHEM1,4:R3-1:R2$$$V2.0)								7.8 ± 0.1		
CC(C)C[C@H](NC(=O)[C@@H]1CCCN1C(=O)[C@H](CO)NC(=O)[C@H](Cc1ccccc1)NC(=O)CNC(=O)[C@@H]1CCCN1C(=O)[C@@H]1CCCN1C(=O)[C@H](CCCNC(=N)N)NC(=O)[C@@H](N)CCCCN)C(=O)O [CP-0298, des ARG^9-[LYS^0, LEU^8]-BK, reference compound]	-	-	-	+	+	+				
CC(C)C[C@H](NC(=O)[C@@H]1CCCN1C(=O)[C@H](CO)NC(=O)[C@H](Cc1ccccc1)NC(=O)CNC(=O)[C@@H]1C[C@@H](O)CN1C(=O)[C@@H]1CCCN1C(=O)[C@H](CSC1CC(=O)N(CCCCCCN2C(=O)CC(SC[C@H](NC(=O)[C@H](Cc3ccccc3)NC(=O)CNC(=O)[C@@H]3C[C@@H](O)CN3C(=O)[C@@H]3CCCN3C(=O)[C@H](CCCNC(=N)N)NC(=O)[C@H](N)CCCNC(=N)N)C(=O)N[C@H](Cc3ccccc3)C(=O)N[C@@H](CC(C)C)C(=O)N[C@@H](CCCNC(=N)N)C(=O)O)C2=O)C1=O)NC(=O)[C@H](N)CCCNC(=N)N)C(=O)O (stereo partly shown) [CP-0364] (HELM PEPTIDE1{[dR].R.P.[Hyp].G.F.C.[dF].L.R}|PEPTIDE2{[dR].C.P.[Hyp].G.F.S.P.L}|CHEM1{[O=C1CC([*:1])C(=O)N1CCCCCCN1C(=O)CC([*:2])C1=O]}$PEPTIDE1,CHEM1,7:R3-1:R1|PEPTIDE2,CHEM1,2:R3-1:R2$$$V2.0; N-terminus and C-terminus assumed)	+	+	+	+	+	+			capable of blocking the response profile to both agonists simultaneously	capable of blocking the response profile to both agonists simultaneously
